Test results reported in PMC8580996, “2-Oxoglutarate derivatives can selectively enhance or inhibit the activity of human oxygenases” (Nature Communications, 2021).
Values joined by “and” are separate entries in the source; they are usually repeats but may differ in a detail not shown here. Equal values may be shown once.

Biological target: FIH (Homo sapiens, UniProt Q9NWT6)
Test: Mechanism of FIH inhibition: 2OG kinetics at variable concentrations of 18 (Ki, Cornish-Bowden plot)
Format: biochemical
Set-up: FIH reaction rate at variable 2OG and compound 18 concentrations (Figure 5a): unit not given here
Description: Supplementary Figure 28. Determination of the FIH Kapp for 4-(3-phenylprop-1-yl)-2OG (18) (continues on […]
the following page). […]
(LAA), and 20 μM ammonium iron(II) sulfate hexahydrate (FAS, (NH4)2Fe(SO4)2·6H2O) in buffer (50 mM Tris, 50 mM NaCl, pH 7.5, 20° C). Measurement times were normalized to the first sample injection analyzed after the […]
are shown as the mean of independent triplicates (n = 3; mean ± standard deviation, SD). […]
2OG concentrations, determined in the presence of 0.5 μM 18; (e) hydroxylation rates used for the kinetic analysis; […]

FIH, sequence (Q9NWT6 whole entry): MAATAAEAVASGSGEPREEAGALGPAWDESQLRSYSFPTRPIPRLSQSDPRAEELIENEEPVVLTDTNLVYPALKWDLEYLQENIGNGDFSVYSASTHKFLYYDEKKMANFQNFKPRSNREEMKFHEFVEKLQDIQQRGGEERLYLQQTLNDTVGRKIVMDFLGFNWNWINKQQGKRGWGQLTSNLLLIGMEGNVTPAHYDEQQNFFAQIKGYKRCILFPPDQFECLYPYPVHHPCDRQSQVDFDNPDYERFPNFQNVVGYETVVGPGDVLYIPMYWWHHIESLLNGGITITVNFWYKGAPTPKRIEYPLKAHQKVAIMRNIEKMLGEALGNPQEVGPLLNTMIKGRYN

2OG concentration / rate, Cornish-Bowden plot (Figure 5b) (0.5 μM 18, 2 μM 2OG): 738.825 and 619.579 and 831.947
2OG concentration / rate, Cornish-Bowden plot (Figure 5b) (0.5 μM 18, 4 μM 2OG): 1161.44 and 956.709 and 1175.78
2OG concentration / rate, Cornish-Bowden plot (Figure 5b) (0.5 μM 18, 8 μM 2OG): 1892.15 and 1526.72 and 1620.09
2OG concentration / rate, Cornish-Bowden plot (Figure 5b) (0.5 μM 18, 16 μM 2OG): 2827.85 and 3158.93 and 3165.81
2OG concentration / rate, Cornish-Bowden plot (Figure 5b) (0.5 μM 18, 32 μM 2OG): 6761.04 and 5757.47 and 6079.03
2OG concentration / rate, Cornish-Bowden plot (Figure 5b) (0.5 μM 18, 64 μM 2OG): 11329.4 and 12181.2 and 11500.5
FIH reaction rate at variable 2OG and compound 18 concentrations (Figure 5a) (0.5 μM compound 18, 0 μM 2OG): 0
FIH reaction rate at variable 2OG and compound 18 concentrations (Figure 5a) (0.5 μM compound 18, 0.5 μM 2OG): 0.000919 and 0.000982 and 0.001057
FIH reaction rate at variable 2OG and compound 18 concentrations (Figure 5a) (0.5 μM compound 18, 1 μM 2OG): 0.001502 and 0.002201 and 0.001615
FIH reaction rate at variable 2OG and compound 18 concentrations (Figure 5a) (0.5 μM compound 18, 2 μM 2OG): 0.002707 and 0.003228 and 0.002404
FIH reaction rate at variable 2OG and compound 18 concentrations (Figure 5a) (0.5 μM compound 18, 4 μM 2OG): 0.003444 and 0.004181 and 0.003402
FIH reaction rate at variable 2OG and compound 18 concentrations (Figure 5a) (0.5 μM compound 18, 8 μM 2OG): 0.004228 and 0.00524 and 0.004938
FIH reaction rate at variable 2OG and compound 18 concentrations (Figure 5a) (0.5 μM compound 18, 16 μM 2OG): 0.005658 and 0.005065 and 0.005054
FIH reaction rate at variable 2OG and compound 18 concentrations (Figure 5a) (0.5 μM compound 18, 32 μM 2OG): 0.004733 and 0.005558 and 0.005264
FIH reaction rate at variable 2OG and compound 18 concentrations (Figure 5a) (0.5 μM compound 18, 64 μM 2OG): 0.005649 and 0.005254 and 0.005565
2OG concentration / rate, Cornish-Bowden plot (Figure 5b) (1 μM 18, 2 μM 2OG): 1398.6 and 985.222 and 1090.51
2OG concentration / rate, Cornish-Bowden plot (Figure 5b) (1 μM 18, 4 μM 2OG): 1161.44 and 1382.65 and 1432.15
2OG concentration / rate, Cornish-Bowden plot (Figure 5b) (1 μM 18, 8 μM 2OG): 2089.32 and 1965.12 and 2137.89
2OG concentration / rate, Cornish-Bowden plot (Figure 5b) (1 μM 18, 16 μM 2OG): 3148.99 and 3185.35 and 3256
2OG concentration / rate, Cornish-Bowden plot (Figure 5b) (1 μM 18, 32 μM 2OG): 5969.04 and 5882.35
2OG concentration / rate, Cornish-Bowden plot (Figure 5b) (1 μM 18, 64 μM 2OG): 12176.6 and 10488.4
FIH reaction rate at variable 2OG and compound 18 concentrations (Figure 5a) (1.0 μM compound 18, 0 μM 2OG): 0
FIH reaction rate at variable 2OG and compound 18 concentrations (Figure 5a) (1.0 μM compound 18, 0.5 μM 2OG): 0.000462 and 0.000537 and 0.000636
FIH reaction rate at variable 2OG and compound 18 concentrations (Figure 5a) (1.0 μM compound 18, 1 μM 2OG): 0.000809 and 0.001158 and 0.001225
FIH reaction rate at variable 2OG and compound 18 concentrations (Figure 5a) (1.0 μM compound 18, 2 μM 2OG): 0.00143 and 0.00203 and 0.001834
FIH reaction rate at variable 2OG and compound 18 concentrations (Figure 5a) (1.0 μM compound 18, 4 μM 2OG): 0.003444 and 0.002893 and 0.002793
FIH reaction rate at variable 2OG and compound 18 concentrations (Figure 5a) (1.0 μM compound 18, 8 μM 2OG): 0.003829 and 0.004071 and 0.003742
FIH reaction rate at variable 2OG and compound 18 concentrations (Figure 5a) (1.0 μM compound 18, 16 μM 2OG): 0.005081 and 0.005023 and 0.004914
FIH reaction rate at variable 2OG and compound 18 concentrations (Figure 5a) (1.0 μM compound 18, 32 μM 2OG): 0.005361 and 0.00544
FIH reaction rate at variable 2OG and compound 18 concentrations (Figure 5a) (1.0 μM compound 18, 64 μM 2OG): 0.005256 and 0.006102
2OG concentration / rate, Cornish-Bowden plot (Figure 5b) (2 μM 18, 2 μM 2OG): 2902.76 and 2272.73 and 1572.33
2OG concentration / rate, Cornish-Bowden plot (Figure 5b) (2 μM 18, 4 μM 2OG): 2503.13 and 2493.77 and 2115.28
2OG concentration / rate, Cornish-Bowden plot (Figure 5b) (2 μM 18, 8 μM 2OG): 3164.56 and 2950.94 and 2606.71
2OG concentration / rate, Cornish-Bowden plot (Figure 5b) (2 μM 18, 16 μM 2OG): 5053.7 and 4190.68 and 4087.89
2OG concentration / rate, Cornish-Bowden plot (Figure 5b) (2 μM 18, 32 μM 2OG): 7228.37 and 7157.24 and 7025.25
2OG concentration / rate, Cornish-Bowden plot (Figure 5b) (2 μM 18, 64 μM 2OG): 11617.4 and 13556.5
FIH reaction rate at variable 2OG and compound 18 concentrations (Figure 5a) (2.0 μM compound 18, 0 μM 2OG): 0
FIH reaction rate at variable 2OG and compound 18 concentrations (Figure 5a) (2.0 μM compound 18, 1 μM 2OG): 0.000474 and 0.000421 and 0.000679
FIH reaction rate at variable 2OG and compound 18 concentrations (Figure 5a) (2.0 μM compound 18, 2 μM 2OG): 0.000689 and 0.00088 and 0.001272
FIH reaction rate at variable 2OG and compound 18 concentrations (Figure 5a) (2.0 μM compound 18, 4 μM 2OG): 0.001598 and 0.001604 and 0.001891
FIH reaction rate at variable 2OG and compound 18 concentrations (Figure 5a) (2.0 μM compound 18, 8 μM 2OG): 0.002528 and 0.002711 and 0.003069
FIH reaction rate at variable 2OG and compound 18 concentrations (Figure 5a) (2.0 μM compound 18, 16 μM 2OG): 0.003166 and 0.003818 and 0.003914
FIH reaction rate at variable 2OG and compound 18 concentrations (Figure 5a) (2.0 μM compound 18, 32 μM 2OG): 0.004427 and 0.004471 and 0.004555
FIH reaction rate at variable 2OG and compound 18 concentrations (Figure 5a) (2.0 μM compound 18, 64 μM 2OG): 0.005509 and 0.004721
2OG concentration / rate, Cornish-Bowden plot (Figure 5b) (4 μM 18, 2 μM 2OG): 4319.65 and 4926.11 and 3120.12
2OG concentration / rate, Cornish-Bowden plot (Figure 5b) (4 μM 18, 4 μM 2OG): 4866.18 and 5181.35 and 3610.11
2OG concentration / rate, Cornish-Bowden plot (Figure 5b) (4 μM 18, 8 μM 2OG): 5025.13 and 6092.92
2OG concentration / rate, Cornish-Bowden plot (Figure 5b) (4 μM 18, 16 μM 2OG): 7045.35 and 7289.29 and 6153.85
2OG concentration / rate, Cornish-Bowden plot (Figure 5b) (4 μM 18, 32 μM 2OG): 9395.18 and 8886.42 and 8623.01
2OG concentration / rate, Cornish-Bowden plot (Figure 5b) (4 μM 18, 64 μM 2OG): 15241.7 and 14522.4 and 14719.4
FIH reaction rate at variable 2OG and compound 18 concentrations (Figure 5a) (4.0 μM compound 18, 0 μM 2OG): 0
FIH reaction rate at variable 2OG and compound 18 concentrations (Figure 5a) (4.0 μM compound 18, 2 μM 2OG): 0.000463 and 0.000406 and 0.000641
FIH reaction rate at variable 2OG and compound 18 concentrations (Figure 5a) (4.0 μM compound 18, 4 μM 2OG): 0.000822 and 0.000772 and 0.001108
FIH reaction rate at variable 2OG and compound 18 concentrations (Figure 5a) (4.0 μM compound 18, 8 μM 2OG): 0.001592 and 0.001313 and 0.00107
FIH reaction rate at variable 2OG and compound 18 concentrations (Figure 5a) (4.0 μM compound 18, 16 μM 2OG): 0.002271 and 0.002195 and 0.0026
FIH reaction rate at variable 2OG and compound 18 concentrations (Figure 5a) (4.0 μM compound 18, 32 μM 2OG): 0.003406 and 0.003601 and 0.003711
FIH reaction rate at variable 2OG and compound 18 concentrations (Figure 5a) (4.0 μM compound 18, 64 μM 2OG): 0.004199 and 0.004407 and 0.004348
Ki (non-linear regression, HIF-1α788–822, 2OG-competitive): ~200 nM
FIH Kmapp for 2OG (presence of 0.5 μM 18): 2.12 ± 0.20 µM
FIH vmaxapp for 2OG (presence of 0.5 μM 18): 5.8 ± 0.1 10-3 μM·s-1
FIH Kmapp for 2OG (presence of 1.0 μM 18): 4.58 ± 0.34 µM
FIH vmaxapp for 2OG (presence of 1.0 μM 18): 6.2 ± 0.1 10-3 μM·s-1
FIH Kmapp for 2OG (presence of 2.0 μM 18): 9.62 ± 0.91 µM
FIH vmaxapp for 2OG (presence of 2.0 μM 18): 5.9 ± 0.2 10-3 μM·s-1
FIH Kmapp for 2OG (presence of 4.0 μM 18): 25.1 ± 2.5 µM
FIH vmaxapp for 2OG (presence of 4.0 μM 18): 6.1 ± 0.3 10-3 μM·s-1
Compound: O=C(O)C(=O)CC(CCCc1ccccc1)C(=O)O (stereo not drawn) [compound 18, 4-(3-phenylpropyl)-2OG]
